Assay results taken from US9260439B2, “Dihydropyrrolopyrimidine derivatives” (PFIZER INC., priority 2014, dated 2016).

Key:
[1] = target: full-length PI3Kα (full-length p110α/p85α) (Homo sapiens (Human), UniProt P42336); assay: PI3KA_FL fluorescence polarization kinase assay (Ki); format: biochemical; details: 41 μM ATP
[2] = target: truncated PI3Kα (p110α/iSH2 p85α) (Homo sapiens (Human), UniProt P42336); assay: PI3KA_Act fluorescence polarization kinase assay (Ki); format: biochemical; details: 1 mM ATP
How it was run: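 p110α/iSH2 p85α (0.5 nM) was reacted with 30 μM sonicated PIP2 in 50 mM HEPES pH 7.4, 150 mM NaCl, 5 mM MgCl2, 1 mM DTT and 0.05% CHAPS for 30 min at room temperature, then stopped with EDTA. PIP3 was detected by fluorescence polarization (GST-Grp1 PH domain/TAMRA-PIP3), and Ki came from a Morrison tight-binding fit.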

Chain of full-length PI3Kα (full-length p110α/p85α) (P42336 whole entry, the tested form may be a part): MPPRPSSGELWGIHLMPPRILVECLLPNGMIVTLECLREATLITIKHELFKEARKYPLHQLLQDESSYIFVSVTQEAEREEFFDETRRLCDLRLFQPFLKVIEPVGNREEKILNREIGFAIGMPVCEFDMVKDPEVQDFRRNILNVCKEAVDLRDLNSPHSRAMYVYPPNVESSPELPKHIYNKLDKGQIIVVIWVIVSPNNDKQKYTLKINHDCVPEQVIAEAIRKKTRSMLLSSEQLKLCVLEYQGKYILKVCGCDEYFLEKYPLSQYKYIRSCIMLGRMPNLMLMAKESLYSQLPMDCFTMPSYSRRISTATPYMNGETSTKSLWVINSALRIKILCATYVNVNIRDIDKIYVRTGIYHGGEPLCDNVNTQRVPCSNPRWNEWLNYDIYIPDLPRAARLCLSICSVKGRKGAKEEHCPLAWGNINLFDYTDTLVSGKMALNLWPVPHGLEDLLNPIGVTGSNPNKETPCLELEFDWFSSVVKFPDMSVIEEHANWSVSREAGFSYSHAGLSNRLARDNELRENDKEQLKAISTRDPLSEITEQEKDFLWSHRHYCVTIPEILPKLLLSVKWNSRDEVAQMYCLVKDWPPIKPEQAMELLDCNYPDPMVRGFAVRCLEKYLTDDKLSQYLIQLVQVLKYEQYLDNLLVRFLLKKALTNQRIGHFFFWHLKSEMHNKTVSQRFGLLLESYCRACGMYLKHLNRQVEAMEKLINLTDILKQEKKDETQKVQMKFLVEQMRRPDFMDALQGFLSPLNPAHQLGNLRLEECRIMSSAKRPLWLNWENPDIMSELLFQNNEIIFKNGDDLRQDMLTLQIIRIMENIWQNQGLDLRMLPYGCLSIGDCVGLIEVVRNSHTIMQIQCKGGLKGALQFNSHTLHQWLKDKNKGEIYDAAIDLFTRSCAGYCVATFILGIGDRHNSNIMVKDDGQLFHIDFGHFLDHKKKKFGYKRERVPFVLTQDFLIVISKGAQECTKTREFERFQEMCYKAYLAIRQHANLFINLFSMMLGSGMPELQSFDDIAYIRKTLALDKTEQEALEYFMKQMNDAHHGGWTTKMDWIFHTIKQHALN
Chain of full-length PI3Kα (full-length p110α/p85α) (P27986 whole entry partner, the tested form may be a part): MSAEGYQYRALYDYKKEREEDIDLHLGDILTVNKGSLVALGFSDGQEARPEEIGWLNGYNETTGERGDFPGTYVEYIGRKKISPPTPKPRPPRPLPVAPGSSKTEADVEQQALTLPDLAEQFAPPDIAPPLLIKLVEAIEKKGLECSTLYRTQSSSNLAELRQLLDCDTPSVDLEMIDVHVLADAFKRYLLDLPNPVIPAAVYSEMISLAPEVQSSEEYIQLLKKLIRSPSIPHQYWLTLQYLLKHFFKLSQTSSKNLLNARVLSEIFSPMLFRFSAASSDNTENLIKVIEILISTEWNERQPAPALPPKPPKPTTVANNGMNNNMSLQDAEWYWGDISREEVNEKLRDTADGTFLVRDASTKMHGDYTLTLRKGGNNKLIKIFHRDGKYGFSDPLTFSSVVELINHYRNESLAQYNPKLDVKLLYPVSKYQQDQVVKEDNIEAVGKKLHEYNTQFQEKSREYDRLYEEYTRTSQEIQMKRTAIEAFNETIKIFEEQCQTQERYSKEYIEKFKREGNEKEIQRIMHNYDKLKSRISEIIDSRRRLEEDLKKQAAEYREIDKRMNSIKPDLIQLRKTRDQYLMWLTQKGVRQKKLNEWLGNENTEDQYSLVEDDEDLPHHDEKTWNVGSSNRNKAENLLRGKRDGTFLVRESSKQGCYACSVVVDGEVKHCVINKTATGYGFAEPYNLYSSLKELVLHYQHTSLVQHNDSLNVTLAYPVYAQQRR
Chain of truncated PI3Kα (p110α/iSH2 p85α) (P42336 whole entry, the tested form may be a part): as the sequence (P42336 whole entry, the tested form may be a part) above

SMILES	PI3KA_FL Ki (nM) [1]	PI3KA_Act Ki [2] [nM]	PI3KA_FL Ki [1] [nM]
C[C@H]1COCCN1c1nc(-c2cnc(N)nc2)c2c(n1)N(C1CN(S(C)(=O)=O)C1)CC2 [Example 113]	≦0.229 nM	0.289	
CCS(=O)(=O)N1CC(N2CCc3c(-c4cnc(N)nc4)nc(N4CCOC[C@@H]4C)nc32)C1 [Example 115]	≦0.229 nM	0.105	
CNS(=O)(=O)N1C[C@@H](N2CCc3c(-c4cnc(N)nc4)nc(N4CCOC[C@@H]4C)nc32)[C@H](OC)C1 [Example 117]		0.179	0.256
C[C@H]1COCCN1c1nc(-c2cnc(N)nc2)c2c(n1)N(C1CN(S(=O)(=O)C3CC3)C1)CC2 [Example 118]	≦0.229 nM	0.030	
CCS(=O)(=O)N1CC[C@H](N2CCc3c(-c4cnc(N)nc4)nc(N4CCOC[C@@H]4C)nc32)C1 [Example 119]	≦0.229 nM	0.059	
C[C@H]1COCCN1c1nc(-c2cnc(N)nc2)c2c(n1)N(C1CN(S(=O)(=O)N(C)C)C1)CC2 [Example 120]	≦0.229 nM	0.030	
C[C@H]1COCCN1c1nc(-c2cnc(N)nc2)c2c(n1)N([C@H]1CCN(S(=O)(=O)C3CC3)C1)CC2 [Example 121]	≦0.229 nM	0.056	
CNS(=O)(=O)N1CC(N2CCc3c(-c4cnc(N)nc4)nc(N4CCOC[C@@H]4C)nc32)C1 [Example 122]	≦0.229 nM	0.064	
COC(=O)N1CC[C@H](N2CCc3c(-c4cnc(N)nc4)nc(N4CCOC[C@@H]4C)nc32)C1 [Example 123]	≦0.229 nM	0.069	
CCOC(=O)N1CC[C@H](N2CCc3c(-c4cnc(N)nc4)nc(N4CCOC[C@@H]4C)nc32)C1 [Example 125]	≦0.229 nM	0.087	
C[C@H]1COCCN1c1nc(-c2cnc(N)nc2)c2c(n1)N(C1CN(S(N)(=O)=O)C1)CC2 [Example 126]	≦0.229 nM	0.219	
CNS(=O)(=O)N1C[C@@H](O)[C@H](N2CCc3c(-c4cnc(N)nc4)nc(N4CCOC[C@@H]4C)nc32)C1 [Example 128]	≦0.229 nM	0.126	
CC(C)S(=O)(=O)N1CC[C@H](N2CCc3c(-c4cnc(N)nc4)nc(N4CCOC[C@@H]4C)nc32)C1 [Example 131]	≦0.229 nM	0.044	
CC(C)(C)N1CCc2c(-c3cnc(N)nc3)nc(N3CCOCC3)nc21 [Example 132]	≦0.229 nM	0.150	
CC(=O)N1CC(OC(=O)N2CC[C@@H](N3CCc4c(-c5cnc(N)nc5)nc(N5CCOC[C@@H]5C)nc43)C2)C1 [Example 136]	≦0.229 nM	0.099	
